Several values for one entry are separate records, joined by “and”; a condition that tells them apart may be missing. Equal values may be shown once. Read-outs that look alike come from different tables or passages of the source.
Experiments:
PDL Fibroblasts = experiment: SRB cytotoxicity on normal periodontal ligament fibroblasts, selective cytotoxicity; type: cell-based, Human; settings: for IC50: Homo sapiens, Fibroblast, normal fibroblasts, SRB, 72 h, mean ± SD; for Selectivity index SI (HELA): IC50 on PDL fibroblasts divided by IC50 on HELA; for Selectivity index SI (A562): IC50 on PDL fibroblasts divided by IC50 on the cell line printed as A562; for Selectivity index SI (K562): IC50 on PDL fibroblasts divided by IC50 on K562
Method: (§1) The cytotoxicity measurements were determined using Sulforhodamine B (SRB) colorimetric assay for cytotoxicity screening. The mechanism of reduction of cell viability was adopted as described previously (Arabiyat et al., 2016a,b; 2017; Alabsi et al., 2018; Jumah, 2018; AlShahrabi et al., 2020). Human periodontal ligament fibroblasts (PDL) are a primary normal cell culture for verification of selective cytotoxicity. […] Selectivity ratio as indicative factor of the safety of compounds was calculated by dividing IC50 of tested compound on normal fibroblasts by IC50 of the same compound on specific pathological cell line (Hoffman et al., 2011).

PANC 1 cell line = experiment: SRB cytotoxicity assay, PANC 1 pancreatic cancer cell line; settings: Homo sapiens, PANC-1, 72 h, read-out: Cytotoxicity IC50 value, PANC 1 cell line
Method: (§2) All reagents and chemicals of analytical grade were obtained from Sigma (Dorset, UK); unless stated otherwise. All chemicals, reagents and solvents (of analytical grade) were used directly without further purification. MCF7 cell line ATCC® HTB-22™, T47D cell line ATCC® HTB-133™, K562 cell line ATCC® CCL-243™, Panc1 cell line ATCC® CRL-1469™. A375.S2 cell line ATCC® CRL-1872™, A549 cell line ATCC® CCL-185™, HELA cell line ATCC® CCL-2™ were cultured in Dulbecco’s modified eagle’s medium (DMEM). (DMEM) containing foetal bovine serum (FBS) (Bio Whittaker, Verviers, Belgium), 4-(2-hydroxyethyl)-1-piperazine ethane sulfonic acid (HEPES) Buffer, L-glutamine, gentamicin, penicillin, and streptomycin sulphate (Sigma, St. Luis, MO, USA), trypsin, trypan blue, Ciprofloxacin HCl from Aarti drugs Ltd/India, was a kind gift from Pharma International Company- Amman; Fluconazole from Neopharma, United Arab Emirates, a kind gift from Pharmaceutical Research Unit, Amman; Trypon soya agar (TSA), trypon soya broth (TSB), sabouraud dextrose agar (SDA) were obtained from Liofilchem (Italy) or Oxoid LTD (Basingstoke, England), they were reconstituted and sterilized by autoclave at 121 °C for 15 min.
as §1

MCF7 cell line = experiment: SRB cytotoxicity assay, MCF7 breast cancer cell line; settings: Homo sapiens, MCF7, 72 h, read-out: Cytotoxicity IC50 value, MCF7 cell line
Method: as §2, §1

K562 cell line = experiment: SRB cytotoxicity assay, K562 leukaemia cell line; settings: Homo sapiens, K562, 72 h
Method: as §2, §1

A375.S2 cell line = experiment: SRB cytotoxicity assay, A375.S2 melanoma cell line; settings: Homo sapiens, A375-S2, 72 h, read-out: Cytotoxicity IC50 value, A375.S2 cell line
Method: as §2, §1

T47D cell line = experiment: cells; settings: Homo sapiens, T47D, 72 h, read-out: Cytotoxicity IC50 value, T47D cell line
Method: as §2, §1

HELA cell line = experiment: SRB cytotoxicity assay, HELA cervical cancer cell line; settings: Homo sapiens, HeLa, 72 h
Method: as §2, §1

A549 cell line = experiment: SRB cytotoxicity assay, A549 lung cancer cell line; settings: Homo sapiens, A549, 72 h, read-out: Cytotoxicity IC50 value, A549 cell line
Method: as §2, §1

[1] = 0.1-200 μg/mL range, NI = lack of cytotoxicity in range
[2] = read-out: Cytotoxicity IC50 value, K562 cell line, SRB, 72 h, 0.1-200 μg/mL range, mean ± SD, value in brackets
[3] = read-out: Cytotoxicity IC50 value, K562 cell line, SRB, 72 h, 0.1-200 μg/mL range, mean ± SD, NI = lack of cytotoxicity in range
[4] = read-out: Cytotoxicity IC50 value, HELA cell line, SRB, 72 h, 0.1-200 μg/mL range, mean ± SD, value in brackets
[5] = read-out: Cytotoxicity IC50 value, HELA cell line, SRB, 72 h, 0.1-200 μg/mL range, mean ± SD, NI = lack of cytotoxicity in range

| SMILES | IC50 (PDL Fibroblasts; [1]) [µM] | IC50 (PDL Fibroblasts; value in brackets) [µg/mL] | Selectivity index SI (HELA) (PDL Fibroblasts) | IC50 (PANC 1 cell line) | IC50 (MCF7 cell line) | IC50 (K562 cell line; [2]) [µg/mL] | IC50 (K562 cell line; [3]) | IC50 (A375.S2 cell line) | IC50 (T47D cell line) | IC50 (HELA cell line; [4]) [µg/mL] | IC50 (HELA cell line; [5]) [µM] | IC50 (A549 cell line) | Selectivity index SI (A562) (PDL Fibroblasts) | Selectivity index SI (PANC 1) (PDL Fibroblasts; IC50 on PDL fibroblasts divided by IC50 on PANC 1) | Selectivity index SI (K562) (PDL Fibroblasts) | Selectivity index SI (A375.S2) (PDL Fibroblasts; IC50 on PDL fibroblasts divided by IC50 on A375.S2) |
| --- | --- | --- | --- | --- | --- | --- | --- | --- | --- | --- | --- | --- | --- | --- | --- | --- |
| COc1ccccc1Nc1c(F)cc2c(=O)c(C(=O)O)cn(C3CC3)c2c1N [4a, 8-amino-1-cyclopropyl-6-fluoro-7-(2-methoxy-phenylamino)-4-oxo-1,4-dihydro-quinoline-3-carboxylic acid] | 140 ± 10.5 | 53.8 | 3.46 | 113 µM and 43.4 µg/mL | > 200 µg/mL | 16.9 | 44 ± 3.88 µM | 72.3 µM and 27.8 µg/mL | 95.8 µM and 36.8 µg/mL | 15.5 | 40.4 ± 6.03 | 153 µM and 58.7 µg/mL |  |  |  |  |
| COc1ccc(Nc2c(F)cc3c(=O)c(C(=O)O)cn(C4CC4)c3c2N)cc1 [4c, 8-amino-1-cyclopropyl-6-fluoro-7-(4-methoxy-phenylamino)-4-oxo-1,4-dihydro-quinoline-3-carboxylic acid] | 138 ± 8.26 | 53 |  | 72.1 µM and 27.6 µg/mL | 57.4 µM and 22 µg/mL | 20 | 52.1 ± 6.9 µM | 248 µM and 95 µg/mL | 77.2 µM and 29.6 µg/mL | 97.8 | 255 ± 2.15 | 5.11 µM and 1.96 µg/mL | 27.07 |  |  |  |
| CCc1ccc(Nc2c(F)cc3c(=O)c(C(=O)O)cn(C4CC4)c3c2N)cc1 [4d, 8-Amino-1-cyclopropyl-6-fluoro-7-(4-ethyl-phenylamino)-4-oxo-1,4-dihydro-quinoline-3-carboxylic acid] | 50.4 ± 4.28 | 19.2 |  | 65.3 µM and 24.9 µg/mL | 21.3 µM and 8.14 µg/mL | 15.9 | 41.8 ± 4.98 µM | 47 µM and 17.9 µg/mL | 53.7 µM and 20.5 µg/mL | 51.7 | 136 ± 4.58 | 20.2 µM and 7.72 µg/mL | 2.49 |  |  |  |
| CCCCCCc1ccc(Nc2c(F)cc3c(=O)c(C(=O)O)cn(C4CC4)c3c2N)cc1 [4f, 8-Amino-1-cyclopropyl-6-fluoro-7-(4-hexyl-phenylamino)-4-oxo-1,4-dihydro-quinoline-3-carboxylic acid] | 352 ± 7.36 | 154 |  | 110 nM and 0.05 µg/mL | 300 nM and 0.13 µg/mL | 30.4 | 69.4 ± 6.64 µM | 244 µM and 107 µg/mL | 308 µM and 135 µg/mL | 13.4 | 30.7 ± 3.79 | 204 µM and 89.5 µg/mL |  | 3199.45 |  |  |
| COc1cccc(-n2nnc3c4c(cc(F)c32)c(=O)c(C(=O)O)cn4C2CC2)c1 [5b, 9-cyclopropyl-4-fluoro-3-(3-methoxy-phenyl)-6-oxo-6,9-dihydro-3H-[1,2, and 3] triazolo [4,5-h] quinoline-7-carboxylic acid] | 143 ± 10.8 | 56.4 |  | 178 µM and 70.2 µg/mL | 112 µM and 44.2 µg/mL | 4.56 | 11.6 ± 0.61 µM | 364 µM and 143 µg/mL | 18 µM and 7.08 µg/mL | 26.3 | 66.9 ± 2.73 | 196 µM and 77.2 µg/mL |  |  | 12.35 |  |
| COc1ccc(-n2nnc3c4c(cc(F)c32)c(=O)c(C(=O)O)cn4C2CC2)cc1 [5c, 9-cyclopropyl-4-fluoro-3-(4-methoxy-phenyl)-6-oxo-6,9-dihydro-3H-[1,2, and 3] triazolo [4,5-h] quinoline-7-carboxylic acid] | 496 ± 52.5 | 195 |  | > 200 µg/mL | > 200 µg/mL | 97.4 | 248 ± 44.6 µM | 453 µM and 178 µg/mL | 398 µM and 156 µg/mL | 179 | 454 ± 19.1 | 427 µM and 168 µg/mL |  |  | 2.00 |  |
| CCCCCCc1ccc(-n2nnc3c4c(cc(F)c32)c(=O)c(C(=O)O)cn4C2CC2)cc1 [5f, 9-cyclopropyl-4-fluoro-3-(4-hexyl-phenyl)-6-oxo-6,9-dihydro-3H-[1,2,3] triazolo[4,5-h]quinoline-7-carboxylic acid] | 474 ± 33.5 | 212 | 132.15 | 119 µM and 53.4 µg/mL | 181 µM and 81.1 µg/mL | 14.1 | 31.5 ± 2.92 µM | 508 µM and 227 µg/mL | 232 µM and 104 µg/mL | 1.61 | 3.59 ± 0.05 | 362 µM and 162 µg/mL |  |  |  |  |
| COc1ccc(-n2nnc3c4c(cc(F)c32)c(=O)c(C(=O)O)cn4C2CC2)c(OC)c1 [5g, 9-cyclopropyl-3-(2,4-dimethoxy-phenyl)-4-fluoro-6-oxo-6,9-dihydro-3H-[1,2,3] triazolo[4,5-h]quinoline-7-carboxylic acid] | 237 ± 13.5 | 102 |  | > 200 µg/mL | 143 µM and 61.9 µg/mL | 24.2 | 56 ± 8.04 µM | 272 µM and 118 µg/mL | 237 µM and 102 µg/mL | 71.8 | 166 ± 26 | 474 µM and 205 µg/mL |  |  | 4.23 |  |
| O=C(O)c1cn(C2CC2)c2c([N+](=O)[O-])c(NC3CCCCC3)c(F)cc2c1=O [7a, 7-cyclohexylamino-1-cyclopropyl-6-fluoro-8-nitro-4-oxo-1,4-dihydro-quinoline-3-carboxylic acid] | 29.9 ± 3.56 | 11.6 | 74.66 | 13.2 µM and 5.15 µg/mL | > 200 µg/mL | 11 | 28.2 ± 2.04 µM | 246 µM and 102 µg/mL | 51.2 µM and 19.9 µg/mL | 0.16 | 0.4 ± 0.05 | 240 µM and 93.6 µg/mL |  |  |  |  |
| Nc1c(NC2CCCCC2)c(F)cc2c(=O)c(C(=O)O)cn(C3CC3)c12 [8a, 8-amino-7-cyclohexylamino-1-cyclopropyl-6-fluoro-4-oxo-1,4-dihydro-quinoline-3-carboxylic acid] | 49.4 ± 2.71 | 17.8 |  | 137 µM and 49.1 µg/mL | > 200 µg/mL | 24.4 | 67.9 ± 6.76 µM | 3.69 µM and 1.33 µg/mL | 148 µM and 53.2 µg/mL | 45 | 125 ± 21.9 | 44 µM and 15.8 µg/mL |  |  |  | 12.48 |
| O=C(O)c1cn(C2CC2)c2c(cc(F)c3c2nnn3C2CCCCC2)c1=O [9a, 3-cyclohexyl-9-cyclopropyl-4-fluoro-6-oxo-6,9-dihydro-3H-[1,2, and 3] triazolo [4,5-h] quinoline-7-carboxylic acid] | 252 ± 11.6 | 93.1 | 3.36 | 162 µM and 60 µg/mL | 133 µM and 49.2 µg/mL |  | > 200 µg/mL | 215 µM and 79.6 µg/mL | 299 µM and 110 µg/mL | 27.6 | 74.8 ± 1.67 | 223 µM and 82.3 µg/mL |  |  |  |  |

From PMC8325119, “A Novel Class of Functionalized Synthetic Fluoroquinolones with Dual Antiproliferative - Antimicrobial Capacities” (Asian Pacific Journal of Cancer Prevention : APJCP, 2021)
